Where a name gives a salt, the structure may show the parent alone.
Assays:
[1] = parameters: method as in PMID 6833881; conditions: room temperature; cited from earlier work
[2] = parameters: method as in PMID 11566796; conditions: cited from earlier work
GST = experiment: NBD-cholesterol binding assay, GST (negative control); parameters: species or system bacterial; conditions: negative control protein
Protocol: (§1) MsSCP-2 binding affinity for NBD-cholesterol, an analog of cholesterol, was determined using NBD-cholesterol binding assays. A 1 ml sample of 10 μM recombinant MsSCP-2 was diluted with 10 mM KHPO4 buffer (pH 7.4) to various concentrations (1 nM~10 μM). Twenty-five microliters of each concentration of MsSCP-2 solution and the control (without MsSCP-2) were thoroughly mixed with 25 μl of NBD-cholesterol solution (1 μM in KHPO4 buffer, pH 7.4) and allowed to equilibrate for 3 minutes to permit stable measurement of the fluorescence signal. NBD-cholesterol fluorescence was excited at 470 nm, and emission was recorded at 530 nm using a fluorescence microplate reader (Model: GeminiXPS, Molecular Devices). Data were fit using a simple, single binding site, non-linear regression model in GraphPad PRISM® software version 4.0 (GraphPad Software Inc., San Diego, CA) using the equation: [drawing 1]
(§2) Where, Kd is the binding affinity, X is the NBD-cholesterol concentration (μM), Y is the total binding (fluorescent intensity unit), and Bmax is the maximum specific binding to be fit. AeSCP-2 and GST were used as a positive control and a negative control, respectively. NBD-cholesterol binding assays for the controls were performed the same as described above for recombinant MsSCP-2.

AeSCP-2 [3] = molecular target: T1, AeSCP-2 (Aedes aegypti, UniProt Q86PR3); experiment: NBD-cholesterol binding assay, AeSCP-2 (positive control); conditions: NBD-cholesterol 1 μM, one site binding non-linear regression; read-out: binding affinity (Kd) of AeSCP-2 to NBD-cholesterol
T1 sequence (Q86PR3 1-110): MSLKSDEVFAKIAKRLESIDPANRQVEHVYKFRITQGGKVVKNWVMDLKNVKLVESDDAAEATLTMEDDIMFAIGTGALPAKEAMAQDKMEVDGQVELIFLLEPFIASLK
Protocol: as §1, §2

MsSCP-2 [4] = molecular target: T2, MsSCP-2 (Manduca sexta, UniProt D8VD27); experiment: NBD-cholesterol binding assay, recombinant MsSCP-2; conditions: NBD-cholesterol 1 μM, MsSCP-2 1 nM~10 μM, one site binding non-linear regression; read-out: binding affinity (Kd) of MsSCP-2 to NBD-cholesterol
Protocol: as §1, §2

[5] = system: M. sexta Day 3 4th instar larvae; experiment: [3H]-palmitic acid uptake (label/chase) in larvae fed SCPIs; type: in vivo, Manduca sexta; conditions: midgut tissue, 2-6 h post feeding
Protocol: (§3) Collected tissue samples were stored at -80°C.
(§4) Student t-test was used in cases where a pair of treatments was compared to determine the significance of the differences.

AeSCP-2 [6] = molecular target: T1, AeSCP-2; experiment: biochemical
Protocol: (§5) The inhibitory effect of SCPI on cholesterol binding to MsSCP-2 was measured using NBD-cholesterol competition assays. In a 50 μl reaction solution in each well of a 96-well plate purified recombinant MsSCP-2 (5 μM) was incubated with NBD-cholesterol (1.25 μM) in the presence of increased concentrations of a SCPI (0-12.5 μM) in 10 mM KHPO4 buffer (pH 7.4) for 5 min. The fluorescence intensity (excitation/emission = 470/530) of NBD-cholesterol was measured. The background control was NBD-cholesterol alone in 10 mM KHPO4 buffer (pH 7.4). A separate set of tests was performed using NBD-cholesterol with increasing concentrations of a SCPI to assess whether a SCPI interfered with NBD-cholesterol fluorescence. If a SCPI interfered with NBD-cholesterol fluorescence, the background control was NBD-cholesterol along with the SCPI. The net change in NBD-cholesterol fluorescence intensity was calculated by subtracting the fluorescence of the background control from the NBD-cholesterol-MsSCP-2 complex in the absence or presence of an inhibitor. The data were plotted with the relative NBD-cholesterol fluorescent intensity (bound NBD-cholesterol) as the y-axis and the molarities of the inhibitor as the x-axis. Bacterial GST protein and Aedes aegypti SCP-2 protein (AeSCP-2) were used as a negative control and a positive control for the assays, respectively.

[7] = system: M. sexta Day 3 4th instar larvae; experiment: [3H]-cholesterol uptake (label/chase) in larvae fed SCPIs; type: in vivo, Manduca sexta; conditions: for suppression of cholesterol storage (stored [3H]-cholesterol) in the fat body: within 6 hours of treatment, versus controls; for accumulation of [3H]-cholesterol in the fat body versus controls: within 6 hours post feeding; for [3H]-cholesterol levels in the feces, higher than in the controls: within the 6 hour period; for amount of labeled cholesterol in the hemolymph: 2 to 6 hours post feeding; for hemolymph [3H]-cholesterol levels versus control: all post feeding time points; for total amount of [3H]-cholesterol in the midgut tissue versus controls: over the observed time period (2-6 h), two-way ANOVA
Protocol: as §3, §4

Day 3 4th instar larvae = experiment: Dietary uptake of NBD-cholesterol in larvae fed SCPIs; conditions: mean ± S.D.
Protocol: NBD-cholesterol and the SCPI were added into the diet and fed to Day 3 4th instar larvae (12 insects (4 insects/time)/group) as described for [^3H]-cholesterol. Total lipids were extracted from tissue samples as described for [^3H]-cholesterol. Dried lipids were re-dissolved in 50 μl methanol and the NBD fluorescent was measured (470/530 nm = excitation/emission). RFU = the relative fluorescent unit (sample FU - blank FU).
**Data were analyzed using two-way ANOVA.

Manduca sexta GV1 cells = system: Manduca sexta GV1 cells; parameters: method as in PMID 15627652; conditions: 10 μM; cited from earlier work
MsSCP-2 [8] = molecular target: T2, MsSCP-2; experiment: biochemical
Protocol: as §5

Manduca sexta larvae = system: Manduca sexta larvae; parameters: method as in PMID 15627652; conditions: cited from earlier work

T2 sequence (D8VD27 entry or part of it): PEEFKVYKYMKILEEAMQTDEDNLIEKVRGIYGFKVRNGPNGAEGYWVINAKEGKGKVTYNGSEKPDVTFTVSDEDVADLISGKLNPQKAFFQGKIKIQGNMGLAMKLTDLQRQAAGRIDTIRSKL

Row | Structure (SMILES) | [3H]-palmatic acid uptake/levels in the midgut [5] | EC50 (AeSCP-2 [6]) [nM] | amount of [3H]-cholesterol in the midgut [7] [DMP/mg protein] | suppression of cholesterol storage (stored [3H]-cholesterol) in the fat body ([7]; fat body) [%] | accumulation of [3H]-cholesterol in the fat body versus controls ([7]; fat body) | [3H]-cholesterol levels in the feces, higher than in the controls [7] [%] | amount of labeled cholesterol in the hemolymph ([7]; SCPI at LD50 dosage in diet) [DPM/mg protein] | hemolymph [3H]-cholesterol levels versus control [7] | total amount of [3H]-cholesterol in the midgut tissue versus controls ([7]; midgut) | NBD-cholesterol, fat body, 2 hour (Day 3 4th instar larvae) [RFU/mg proteins] | NBD-cholesterol, fat body, 4 hour (Day 3 4th instar larvae) [RFU/mg proteins] | NBD-cholesterol, fat body, 6 hour (Day 3 4th instar larvae) [RFU/mg proteins] | NBD-cholesterol, hemolymph, 2 hour (Day 3 4th instar larvae) [RFU/mg proteins] | NBD-cholesterol, hemolymph, 4 hour (Day 3 4th instar larvae) [RFU/mg proteins] | NBD-cholesterol, hemolymph, 6 hour (Day 3 4th instar larvae) [RFU/mg proteins] | NBD-cholesterol, midgut, 2 hour (Day 3 4th instar larvae) [RFU/mg proteins] | NBD-cholesterol, midgut, 4 hour (Day 3 4th instar larvae) [RFU/mg proteins] | NBD-cholesterol, midgut, 6 hour (Day 3 4th instar larvae) [RFU/mg proteins] | suppression of cholesterol uptake (Manduca sexta GV1 cells) [%] | EC50 (MsSCP-2 [8]) [nM] | also measured
1 | CC(C)CCC[C@@H](C)[C@H]1CC[C@H]2[C@@H]3CC=C4C[C@@H](O)CC[C@]4(C)[C@H]3CC[C@]12C [Cholesterol, cholesterol] |  |  |  |  |  |  |  |  |  |  |  |  |  |  |  |  |  |  |  |  | solubility in water [1]: ~ 10 nM; flip-flop rate (t1/2) within the lipid bilayer [2]: 1 to 2 min
2 | C[C@H](CNc1ccc([N+](=O)[O-])c2nonc12)[C@H]1CC[C@H]2[C@@H]3CC=C4C[C@@H](O)CC[C@]4(C)[C@H]3CC[C@]12C [NBD-cholesterol, 22-(N-(7-nitrobenz-2-oxa-1,3-diazol-4-yl)amino)-23,24-bisnor-5-cholen-3β-ol] |  |  |  |  |  |  |  |  |  |  |  |  |  |  |  |  |  |  |  |  | binding of GST to NBD-cholesterol (GST): little binding; Kd (AeSCP-2 [3]): 820 nM; Kd (MsSCP-2 [4]): 1860 nM
3 | CC(=O)Nc1ccc(Nc2nc(-c3ccc(Cl)c(Cl)c3)cs2)cc1 [SCPI-1, N-4-{[4-(3,4-dichlorophenyl)-1,3-thiazol-2-yl]amino}phenyl)aetamide hydrobromide] | suppressed | 900 | 555098.9 | 37 | significantly lower | 265.84 | 28087.6 | significantly lower | significantly lower | 8.01±2.84 | 4.18±1.06 | 3.75±1.10 | 8.62±3.62 | 7.04±1.37 | 5.63±1.62 | 22.77±3.02 | 22.61±4.57 | 17.78±6.43 | 15 | 2200 | total [3H]-cholesterol in the midgut tissue compared with the control group ([7]; midgut, 2 hour time point, SCPI at LD50 dosage in diet): slightly lower
4 | COc1cccc(-n2sc3c(c2=S)-c2cc(Cl)ccc2NC3(C)C)c1 [SCPI-2, 8-chloro-2-(3-methoxyphenyl)-4,4-dimethyl-4,5-dihydroisothiazol[5,4-c]quinoline-1(2H)-thione] | suppressed | 800 | 367836.9 | 69 | significantly lower | 369.02 | 29564.4 | significantly lower | significantly lower | 4.20±0.57 | 7.74±3.56 | 9.05±4.09 | 4.93±1.26 | 4.58±1.47 | 3.89±0.98 | 21.39±2.77 | 21.45±3.55 | 17.43±6.46 | 22 | 900 | lethality to Manduca larvae (Manduca sexta larvae): more lethal than SCPI-1; less stored [3H]-cholesterol in the fat body than for the SCPI-1-treatment ([7]; fat body, 6 hours post feeding): 56%; greater reduction in [3H]-cholesterol uptake/transport than the SCPI-1-treatment ([7]; midgut tissue): 46%; [3H]-cholesterol in the midgut tissue, % of the controls ([7]; midgut, 2 hour post feeding, SCPI at LD50 dosage in diet): 43.18%

— paper PMC2903571, “Sterol carrier protein-x gene and effects of sterol carrier protein-2 inhibitors on lipid uptake in Manduca sexta” (BMC Physiology, 2010)
